The source of these data is patent US9255072B2, “Pyrazole compounds and thiazole compounds as protein kinases inhibitors” (National Health Rsearch Institutes, priority 2011, dated 2016).

The target in this assay is T1, Aurora A (Homo sapiens, UniProt O14965).
T1 construct: GST-Aurora A (residues S123-S401); GST (N); made in house; host or cells: Sf9 insect cells
T1 sequence (O14965 123-401): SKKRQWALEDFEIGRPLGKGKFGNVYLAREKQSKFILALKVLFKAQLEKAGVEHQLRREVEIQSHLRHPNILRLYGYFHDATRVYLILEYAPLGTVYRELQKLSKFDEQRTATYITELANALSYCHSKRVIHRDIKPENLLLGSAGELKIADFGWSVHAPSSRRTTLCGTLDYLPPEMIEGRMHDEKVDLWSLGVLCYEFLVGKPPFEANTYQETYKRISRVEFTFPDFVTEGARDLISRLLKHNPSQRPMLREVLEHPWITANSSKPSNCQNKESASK
In words: Aurora kinase A Kinase-Glo kinase assay. The format is biochemical. The method, then: The recombinant GST-Aurora A (residues S123-S401) containing kinase domain were expressed in Sf9 insect cells. The kinase assay were carried out in 96-well plates with tested compound in a final volume of 50 μl reaction at 37° C. for 90 minutes with following components: 50 mM Tris-HCl pH 7.4, 10 mM NaCl, 10 mM MgCl2, 0.01% BSA, 5 μM ATP, 1 mM DTT and 15 μM tetra(LRRASLG) peptide, and 150 ng recombinant Aurora A. Following incubation, 50 μl Kinase-Glo Plus Reagent (Promega, Madison, Wis., USA) was added to each well and the mixture was incubated at 25° C. for 20 min. A 70-μL aliquot of each reaction mixture was transferred to a black microtiter plate and the luminescence was measured on Wallac Vector 1420 multilabel counter (PerkinElmer, Shelton, Conn., USA).
For orientation: In Kinase-Glo more light means more ATP remaining.

Setting [1] is: Aurora A assay, 5 μM ATP, bound in nM, read-out: IC50.
Setting [2] is: Aurora A assay, 5 μM ATP, bound in μM, read-out: IC50.
[3] abbreviates: table of representative values, read-out: IC50 (nM) Aurora A.

Read-outs that look alike come from different tables or passages of the source. A value given as a limit tells only on which side of the number the result lay.

By IC50 is commonly meant the concentration that gives 50% inhibition. On to `CCc1cc(NC(=O)Nc2ccc(-c3cnc(Nc4cc(N5CCC(N)C5)nc(C)n4)s3)cc2)no1` (stereo not drawn) [Compound 119, N-[4-(2-[6-(3-aminotetrahydro-1H-1-pyrrolyl)-2-methyl-4-pyrimidinyl]amino-1,3-thiazol-5-yl)phenyl]N′-(5-ethyl-3-isoxazolyl)urea], for which the IC50 was less than 200 nM under setting [1], less than 1000 nM under setting [2] and 38 nM under setting [3].

Take `CCc1cc(NC(=O)Nc2ccc(-c3cnc(Nc4cc(N5CCN(CC)CC5)nc(C)n4)s3)cc2)no1` [Compound 112, N-(5-ethyl-3-isoxazolyl)-N′-[4-(2-[6-(4-ethylpiperazino)-2-methyl-4-pyrimidinyl]amino-1,3-thiazol-5-yl)phenyl]urea]: the half-inhibitory concentration (IC50) is, setting by setting: under setting [1], less than 200 nM; under setting [2], less than 1000 nM; under setting [3], 32 nM.
